# Source: patent publication US6815183B1, “Plasmodium sp. chitinase” (The Board of Regents of the University of Texas System, priority 1999, dated 2004)
# pIC50: −log10 of the molar value. Where two headings read alike, the source gives them in different places.
# Legend:
# [1] = test system: Endo Lys-C-treated rPgCHT1; assay: Kinetics of Endo Lys-C-treated rPgCHT1-NT1 on 4-MU substrates (Lineweaver-Burk plot); conditions: pH 6.0
# Procedure: Analysis of Chitinase Activity. Chitinase activity of both native and recombinant chitinases was assessed in three ways. […] Second, microfluorimetry (HTS7000, Perkin-Elmer, excitation 360 nm and emission 465 nm) was used to measure the hydrolysis of 4-MU GlcNAc, 4-MU GlcNAc2, 4-MU GlcNAc3, and 4-MU GlcNAc4 (Sigma) as described previously. Initial enzyme reaction rates were measured. Enzymatic activity is reported as relative fluorescence units or fold change.
# [2] = biological target: peak 1 of chitinase activity (native PgCHT1) (Plasmodium gallinaceum, UniProt Q9NJX9); assay type: biochemical
# rPgCHT1 = rPgCHT1 (Plasmodium gallinaceum, UniProt Q9NJX9); assay: biochemical
# [3] = biological target: peak 2 of chitinase activity (PgCHT2) (Plasmodium gallinaceum, UniProt A0A1J1H1G1); assay type: biochemical
# peak 2 of chitinase activity (PgCHT2), sequence (A0A1J1H1G1 entry or part of it): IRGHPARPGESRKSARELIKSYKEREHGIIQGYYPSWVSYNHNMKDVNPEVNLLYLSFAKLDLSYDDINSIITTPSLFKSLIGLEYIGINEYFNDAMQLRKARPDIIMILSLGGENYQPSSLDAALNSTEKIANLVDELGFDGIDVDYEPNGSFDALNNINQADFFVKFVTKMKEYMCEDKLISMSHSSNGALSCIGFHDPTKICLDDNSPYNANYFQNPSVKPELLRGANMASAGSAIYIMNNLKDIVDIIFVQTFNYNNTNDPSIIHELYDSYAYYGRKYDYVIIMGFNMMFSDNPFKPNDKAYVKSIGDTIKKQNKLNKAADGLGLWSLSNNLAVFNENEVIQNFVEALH
# rPgCHT1, sequence (Q9NJX9 entry or part of it): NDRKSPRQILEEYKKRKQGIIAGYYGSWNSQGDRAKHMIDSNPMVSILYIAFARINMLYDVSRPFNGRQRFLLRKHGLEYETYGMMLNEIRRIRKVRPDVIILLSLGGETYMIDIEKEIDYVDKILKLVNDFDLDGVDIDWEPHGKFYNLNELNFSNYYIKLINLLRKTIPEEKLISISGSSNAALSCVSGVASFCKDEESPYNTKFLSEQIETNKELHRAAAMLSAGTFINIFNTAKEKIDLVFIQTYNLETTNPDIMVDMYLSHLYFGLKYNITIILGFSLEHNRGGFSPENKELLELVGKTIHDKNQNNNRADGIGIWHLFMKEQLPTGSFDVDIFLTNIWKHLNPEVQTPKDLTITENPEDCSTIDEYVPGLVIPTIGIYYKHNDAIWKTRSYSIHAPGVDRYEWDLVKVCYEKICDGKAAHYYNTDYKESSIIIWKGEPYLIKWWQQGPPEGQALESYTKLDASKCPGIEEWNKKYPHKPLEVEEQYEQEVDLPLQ
# peak 1 of chitinase activity (native PgCHT1), sequence (Q9NJX9 entry or part of it): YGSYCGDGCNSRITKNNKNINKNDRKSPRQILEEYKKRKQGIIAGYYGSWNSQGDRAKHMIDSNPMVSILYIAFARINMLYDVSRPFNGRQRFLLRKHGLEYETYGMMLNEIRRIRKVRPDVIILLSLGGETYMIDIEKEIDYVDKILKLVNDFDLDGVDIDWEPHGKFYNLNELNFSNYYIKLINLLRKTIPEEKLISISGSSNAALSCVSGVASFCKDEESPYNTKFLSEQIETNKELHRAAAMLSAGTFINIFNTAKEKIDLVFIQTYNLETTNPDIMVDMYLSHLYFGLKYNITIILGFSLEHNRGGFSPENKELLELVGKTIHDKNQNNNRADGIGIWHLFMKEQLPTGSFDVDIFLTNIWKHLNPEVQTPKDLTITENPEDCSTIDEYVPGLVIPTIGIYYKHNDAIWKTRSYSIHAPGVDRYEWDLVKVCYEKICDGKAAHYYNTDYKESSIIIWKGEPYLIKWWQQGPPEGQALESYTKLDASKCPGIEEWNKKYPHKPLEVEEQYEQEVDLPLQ
SMILES,Km [1],pIC50 [2],pIC50 (rPgCHT1),pIC50 ([3]; read-out: IC50 of PgCHT2),pIC50 ([3]; read-out: IC50 value for peak 2)
"CC(=O)N[C@H]1[C@H](Oc2ccc3c(C)cc(=O)oc3c2)O[C@H](CO)[C@@H](O[C@@H]2O[C@H](CO)[C@@H](O[C@@H]3O[C@H](CO)[C@@H](O)[C@H](O)[C@H]3NC(C)=O)[C@H](O)[C@H]2NC(C)=O)[C@@H]1O [4-MU GlcNAc3, 4-methylumbelliferyl-N,N′,N″-β-D-triacetylchitotrioside]",140 µM,–,–,–,–
CC(=O)N[C@H]1[C@H](O[C@H]2[C@@H](O)[C@@H](NC(C)=O)[C@H](O[C@H]3[C@H](O)[C@H]4N=C(N(C)C)O[C@H]4[C@@H]3CO)O[C@@H]2CO)O[C@H](CO)[C@@H](O)[C@H]1O [allosamidin],–,5.15,4.92,6.52,6.52
